Reference: US6603046B1, “Bis-aromatic a,β-unsaturated ketones” (Lica Pharmaceuticals A/S, priority 1992, dated 2003)
Converted amounts (≈) assume the structure as drawn. “And” between values parts separate entries of the source, which are not always exact repeats. Equal values may be shown once. Read-outs that look alike come from different tables or passages of the source.

What was measured:
L. major promastigotes [1] = test: In vitro growth of L. major promastigotes, 3H-thymidine uptake (Example 4); type: cell-based, Leishmania major; conditions: Leishmania major; for IC50: read-out: concentration for 50% inhibition; for inhibition at 1 µg/mL: 1 μg/ml; for inhibition at 2 µg/mL: 2 μg/ml; for inhibition at 5 µg/mL: 5 μg/ml; for inhibition at 10 µg/mL: 10 μg/ml; for inhibition at 20 µg/mL: 20 μg/ml
L. major promastigotes [2] = test: Electron microscopy of L. major promastigotes (Example 11); type: cell-based, Leishmania major; conditions: for diameter of mitochondria, Maximum (mean) / diameter of mitochondria, Minimum (mean): 24 hours
[3] = system: P. yoelii (strain not characterized); test: P. yoelii (strain not characterized) infection in mice, parasitemia, drug i.p. (Example 16); type: in vivo, BALB/c mice; conditions: 5 mg per kg twice daily for 8 days
Mycobacteria = type: cell-based
[4] = Absorption study in rats, oral, serum concentration (Example 20); type: in vivo
Protocol: The absorption pattern and pharmaco-kinetics of licochalcone A in rats given by oral route were determined compared with pharmacokinetics of licochalcone A in rats given intravenously.
Number of rats: 4 for each group […]
Route: Oral, adminitered once.
Sample: 2 ml of blood was drawn 4 times from each rat.
Serum or plasma was diluted with one part of acetonitrile, left for 15 min at 4° C., and centrifugated for 3 min at 10,000 g. An aliquot of the supernatant was chromatographed at 37° C. by HPLC over Spherisorb ODS-2 (5 μm, 120×4.5 mm, Phase Separation LTD, UK) using acetonitrile aqueous acetic acid, 2%, (1:1) as an eluent, flow rate 1.5 ml/min, and UV detection (370 nm and 254 nm).

[5] = Reaction with glutathione, HPLC (Example 26); type: physicochemical; conditions: acetonitrile-phosphate buffer (1:3), 7 days, ambient temperature
Protocol: Formation of glutathione conjugates of licochalcone A. A solution of 1.5 mg of licochalcone A and 100 mg of glutathione in acetonitrile-0.13 M aqueous potassium phosphate buffer solution pH 75 (1:3) was left for 7 days at ambient temperature protected from light.

human lymphocytes = test: Lymphocyte Proliferation Assay, 3H-thymidine incorporation (Example 13); conditions: Homo sapiens, Lymphocyte
[6] = read-out: percentage inhibition of 3H-thymidine uptake (mean ± SEM), 3-day culture
[7] = read-out: percentage inhibition of 3H-thymidine uptake (mean ± SEM), 6-day culture
[8] = read-out: inhibition of lymphocytes (lower figure)
[9] = read-out: percentage inhibition of lymphocyte proliferation response ±SEM

SMILES: C=CC(C)(C)c1cc(/C=C/C(=O)c2ccc(O)cc2)c(OC)cc1O [Licochalcone A, licochalcone A]
- IC50 (L. major promastigotes [1]; log phase promastigotes): 2 to 5 mg/L (≈ 5.91 to 14.8 µM)
- inhibition at 1 µg/mL (L. major promastigotes [1]; [6]): 3.6 ± 11.5%
- inhibition at 2 µg/mL (L. major promastigotes [1]; [6]): 14.8 ± 21.5%
- inhibition at 5 µg/mL (L. major promastigotes [1]; [6]): 63.9 ± 13%
- inhibition at 10 µg/mL (L. major promastigotes [1]; [6]): 91.9 ± 8.4%
- inhibition at 20 µg/mL (L. major promastigotes [1]; [6]): 96 ± 7.5%
- inhibition at 1 µg/mL (L. major promastigotes [1]; [7]): 15.8 ± 16.5%
- inhibition at 2 µg/mL (L. major promastigotes [1]; [7]): 42.6 ± 19.7%
- inhibition at 5 µg/mL (L. major promastigotes [1]; [7]): 80.7 ± 6.4%
- inhibition at 10 µg/mL (L. major promastigotes [1]; [7]): 96.4 ± 1.2%
- inhibition at 20 µg/mL (L. major promastigotes [1]; [7]): 99.4 ± 1.1%
- IC50 (L. major promastigotes [1]; stationary phase promastigotes): ~2 mg/L (≈ 5.91 µM)
- morphological changes of promastigotes (L. major promastigotes [2]; 1 μg/ml): no morphological changes
- diameter of mitochondria, Maximum (mean) (L. major promastigotes [2]; 1 μg/ml): 203 nm
- diameter of mitochondria, Minimum (mean) (L. major promastigotes [2]; 1 μg/ml): 104 nm
- diameter of mitochondria, Maximum (mean) (L. major promastigotes [2]; 5 μg/ml): 548 nm
- diameter of mitochondria, Minimum (mean) (L. major promastigotes [2]; 5 μg/ml): 165 nm
- percentage of L. major showing cytoplasmic granules (L. major promastigotes [2]; 5 μg/ml, control 50%): 70%
- diameter of mitochondria, Maximum (mean) (L. major promastigotes [2]; 10 μg/ml): 1043 nm
- diameter of mitochondria, Minimum (mean) (L. major promastigotes [2]; 10 μg/ml): 294 nm
- Parasitemia, mean of 3 mice ([3]; D + 1): 0.03%
- Parasitemia, single mice ([3]; D + 1): 0.05% and 0.03% and 0.02%
- Parasitemia, mean of 3 mice ([3]; D + 2): 0.2%
- Parasitemia, single mice ([3]; D + 2): 0.5% and 0.05% and 0.01%
- Parasitemia, mean of 3 mice ([3]; D + 3): 1.0%
- Parasitemia, single mice ([3]; D + 3): 2.0% and 0.5%
- Parasitemia, mean of 3 mice ([3]; D + 4): 2.5%
- Parasitemia, single mice ([3]; D + 4): 4.0% and 1.5% and 2.0%
- Parasitemia, mean of 3 mice ([3]; D + 5): 2.5%
- Parasitemia, single mice ([3]; D + 5): 4.0% and 1.5% and 2.0%
- Parasitemia, mean of 3 mice ([3]; D + 6): 2.3%
- Parasitemia, single mice ([3]; D + 6): 4.5% and 2.0% and 1.0%
- Parasitemia, mean of 3 mice ([3]; D + 7): 2.2%
- Parasitemia, single mice ([3]; D + 7): 4.0% and 1.5% and 1.0%
- Parasitemia, mean of 3 mice ([3]; D + 8): 2.3%
- Parasitemia, single mice ([3]; D + 8): 4.0% and 1.5%
- Parasitemia, mean of 3 mice ([3]; D + 9): 2.2%
- Parasitemia, single mice ([3]; D + 9): 4.0% and 1.0% and 1.5%
- Parasitemia, mean of 3 mice ([3]; D + 11): 1.7%
- Parasitemia, single mice ([3]; D + 11): 2.0% and 1.0%
- Parasitemia, mean of 3 mice ([3]; D + 12): 1.7%
- Parasitemia, single mice ([3]; D + 12): 2.0% and 1.0%
- Parasitemia, mean of 3 mice ([3]; D + 14): 0.7%
- Parasitemia, single mice ([3]; D + 14): 1.0% and 0.0%
- Parasitemia, mean of 3 mice ([3]; D + 16): 0.03%
- Parasitemia, single mice ([3]; D + 16): 0.0% and 0.1%
- Parasitemia, mean of 3 mice ([3]; D + 18): 0.0%
- Parasitemia, single mice ([3]; D + 18): 0.0%
- Parasitemia, mean of 3 mice ([3]; D + 20): 0.0%
- Parasitemia, single mice ([3]; D + 20): 0.0%
- Parasitemia, mean of 3 mice ([3]; D + 21): 0.0%
- Parasitemia, single mice ([3]; D + 21): 0.0%
- Species with MIC ≦ 20 μg/ml (Mycobacteria): M. kansasii and M. xenophii and M. marinum and M. tuberculosis and M. bovis and BCG
- concentration in serum ([4]; 4 hours after oral administration, 1000 mg per kg as printed): 0.16 µg/mL
- concentration at 24 h ([4]; rat, serum, oral, 1000 mg per kg, after 24 hours, detection limit of the assay): < 0.05 µg/mL
- concentration at 4 h ([4]; rat, serum, po, 1000 mg per kg, 4 hours after oral administration, 1000 mg per kg as printed): 0.14 µg/mL
- reaction with glutathione [5]: decreased amounts of licochalcone A and appearance of two new peaks
- inhibition at 0.5 µg/mL (human lymphocytes; [8]): 4.7%
- inhibition at 1 µg/mL (human lymphocytes; [8]): 7.7%
- inhibition at 5 µg/mL (human lymphocytes; [8]): 20.8%
- inhibition at 10 µg/mL (human lymphocytes; [8]): 39.7%
- inhibition at 1 µg/mL (human lymphocytes; [9]): 4.7 ± 5.6%
- inhibition at 2 µg/mL (human lymphocytes; [9]): 7.8 ± 5.7%
- inhibition at 5 µg/mL (human lymphocytes; [9]): 20.8 ± 4.8%
- inhibition at 10 µg/mL (human lymphocytes; [9]): 39.7 ± 5.4%
- inhibition at 20 µg/mL (human lymphocytes; [9]): 65.3 ± 7%
